Like-named read-outs stand apart in the source and are kept apart here.
Key:
[1] = tested on: green peach aphid (Myzus persicae); test: Myzus test (spray treatment); assay type: in vivo; details: 500 g/ha, spray on Chinese cabbage leaf discs, after 6 days; 100% = all aphids killed
Protocol: Myzus Test (Spray Treatment) Solvent: 78 parts by weight of acetone • • 1.5 parts by weight of dimethylformamide Emulsifier: 0.5 part by weight of alkylaryl polyglycol ether To prepare an appropriate active ingredient preparation, 1 part by weight of active ingredient is mixed with the stated amounts of solvent and emulsifier, and the concentrate is diluted with emulsifier-containing water to the desired concentration. Discs of Chinese cabbage (Brassica pekinensis) infested by all stages of the green peach aphid (Myzus persicae) are sprayed with an active ingredient preparation of the desired concentration. After 6 days, the efficacy in % is determined. 100% means that all of the aphids have been killed; 0% means that none of the aphids have been killed.

[2] = Determination of the log P values (formic acid method) by reverse-phase HPLC; assay type: physicochemical; details: reverse-phase HPLC column (C 18), reverse-phase column (C 18), acidic range (pH 3.4), 55° C.
Protocol: 1) Description of Method for Determination of the log P Values (Formic Acid Method)
The log P values given in the table were determined in accordance with EEC Directive 79/831 Annex V.A8 by HPLC (High Performance Liquid Chromatography) using a reverse-phase column (C 18). Temperature: 55° C.
Eluents for determination in the acidic range (pH 3.4):
Eluent A: acetonitrile+1 ml of formic acid/liter. Eluent B: water+0.9 ml of formic acid/liter.
Gradient: from 10% eluent A/90% eluent B to 95% eluent A/5% eluent B in 4.25 min.
The calibration was effected with unbranched alkan-2-ones (having 3 to 16 carbon atoms) with known log P values (log P values determined on the basis of the retention times by linear interpolation between two successive alkanones). The lambda max values were determined in the maxima of the chromatographic signals using the UV spectra from 200 nm to 400 nm.

[3] = tested on: Boophilus microplus; test: Boophilus microplus test (injection); assay type: in vivo; details: 20 μg/animal, injection into the abdomen, after 7 days; 100% = none of the ticks has laid fertile eggs
Protocol: The NMR spectra were • a) determined with a Bruker Avance 400 fitted with a flow probe head (volume 60 μl). The solvent used was CD3CN or d6-DMSO, with tetramethylsilane (0.00 ppm) used as a reference. • b) determined with a Bruker Avance II 600. The solvent used was CD3CN or d6-DMSO, with tetramethylsilane (0.00 ppm) used as a reference. The splitting of the signals was described as follows: s (singlet), d (doublet), t (triplet), q (quartet), quin (quintet), m (multiplet). Boophilus Microplus Test (Injection)
Solvent: dimethyl sulphoxide
To prepare an appropriate active ingredient formulation, 10 mg of active ingredient are mixed with 0.5 ml of solvent and the concentrate is diluted with solvent to the desired concentration. The active ingredient solution is injected into the abdomen (Boophilus microplus), and the animals are transferred into dishes and stored in a climate-controlled room. The activity is assessed by laying of fertile eggs.
After 7 days, the efficacy in % is determined. 100% means that none of the ticks has laid any fertile eggs.

With `Cc1nc(-c2cccnc2)sc1NC(=O)CC(F)(F)F` [Compound 1, 3,3,3-Trifluoro-N-[4-methyl-2-(pyridin-3-yl)-1,3-thiazol-5-yl]propanamide] as the compound, how does the “efficacy in % (aphids killed)” value [1] read?
Its value is 80%.

And the chromatographic logP ([2]; read-out: log P (HCOOH))?
Its chromatographic logP is 1.47.

And the “efficacy in % (laying of fertile eggs)” value [3]?
Its value is 100%.

Which “efficacy in % (aphids killed)” value [1] does the source give for `Cc1nc(-c2cccnc2)sc1NC(=O)Cc1ncccn1` [Compound 2, N-[4-Methyl-2-(pyridin-3-yl)-1,3-thiazol-5-yl]-2-(pyrimidin-2-yl)acetamide] here?
The value was 100%.

And the chromatographic logP ([2]; read-out: log P (HCOOH))?
The chromatographic logP was 0.74.

What does the source list for `Cc1nc(-c2cccnc2)sc1S(=O)(=O)N(C)C` [Compound 3]?
efficacy in % (aphids killed) [1]: 100%; chromatographic logP ([2]; read-out: log P (HCOOH)): 1.86

Which results are given for `CN(C)S(=O)(=O)NC(=O)c1cnn(-c2cccnc2)c1` [Compound 4, N-(Dimethylsulphamoyl)-1-(pyridin-3-yl)-1H-pyrazole-4-carboxamide]?
efficacy in % (aphids killed) [1]: 90%; chromatographic logP ([2]; read-out: log P (HCOOH)): 1.03

Which chromatographic logP ([2]; read-out: log P (HCOOH)) does the source give for `O=S(=O)(Nc1cnn(-c2cccnc2)c1)C(F)F` [Compound 5, 1,1-Difluoro-N-[1-(pyridin-3-yl)-1H-pyrazol-4-yl]methanesulphonamide] here?
Its chromatographic logP is 1.01.

For `Cc1nn(-c2cccnc2)cc1C(=O)NS(=O)(=O)c1ccccc1` [Compound 6], which “efficacy in % (aphids killed)” value [1] is on record?
Its value is 100%.

And the chromatographic logP ([2]; table, read-out: logP (HCOOH))?
Its chromatographic logP is 1.71.

With `CN(C)S(=O)(=O)NC(=O)c1cnn(-c2cncc(F)c2)c1` [Compound 7] as the compound, how does the “efficacy in % (aphids killed)” value [1] read?
The value was 100%.

What about the chromatographic logP ([2]; table, read-out: logP (HCOOH)) of the same compound?
Its chromatographic logP is 1.42.

For `O=C(NS(=O)(=O)C1CC1)c1cnn(-c2cncc(F)c2)c1` [Compound 8], which “efficacy in % (aphids killed)” value [1] is on record?
The value was 90%.

What about the chromatographic logP ([2]; table, read-out: logP (HCOOH)) of the same compound?
Its chromatographic logP is 1.28.

For `O=C(NS(=O)(=O)c1ccccc1)c1cnn(-c2cccnc2)c1` [Compound 9], which chromatographic logP ([2]; table, read-out: logP (HCOOH)) is on record?
The chromatographic logP was 1.39.

For `Cc1nc(-c2cccnc2)sc1S(=O)(=O)NCc1ncccn1` [Compound 10], which chromatographic logP ([2]; table, read-out: logP (HCOOH)) is on record?
Its chromatographic logP is 1.35.

For `O=C(NS(=O)(=O)C1CC1)c1cnn(-c2cccnc2)c1` [Compound 11], which chromatographic logP ([2]; table, read-out: logP (HCOOH)) is on record?
Its chromatographic logP is 0.83.

With `Cc1nc(-c2cccnc2)sc1C(=O)NS(C)(=O)=O` [Compound 12] as the compound, how does the chromatographic logP ([2]; table, read-out: logP (HCOOH)) read?
Its chromatographic logP is 0.54.

Which chromatographic logP ([2]; table, read-out: logP (HCOOH)) does the source give for `Cc1nn(-c2cccnc2)cc1C(=O)NS(C)(=O)=O` [Compound 13] here?
The chromatographic logP was 0.81.

For `COCCNS(=O)(=O)c1sc(-c2cccnc2)nc1C` [Compound 14], which chromatographic logP ([2]; table, read-out: logP (HCOOH)) is on record?
The chromatographic logP was 1.51.

For `O=C(NS(=O)(=O)C(F)(F)F)c1cnn(-c2cccnc2)c1` [Compound 15], which chromatographic logP ([2]; table, read-out: logP (HCOOH)) is on record?
The chromatographic logP was 0.67.

Which chromatographic logP ([2]; table, read-out: logP (HCOOH)) does the source give for `CS(=O)(=O)NC(=O)c1cnn(-c2cccnc2)c1` [Compound 16] here?
Its chromatographic logP is 0.41.

For `O=C(NS(=O)(=O)c1ccccc1)c1cnn(-c2cncc(F)c2)c1` [Compound 17], which chromatographic logP ([2]; table, read-out: logP (HCOOH)) is on record?
Its chromatographic logP is 1.81.

For `CS(=O)(=O)NC(=O)c1cnn(-c2cncc(F)c2)c1` [Compound 18], which chromatographic logP ([2]; table, read-out: logP (HCOOH)) is on record?
Its chromatographic logP is 0.9.

Which chromatographic logP ([2]; table, read-out: logP (HCOOH)) does the source give for `CCS(=O)(=O)NC(=O)c1cnn(-c2cccnc2)c1` [Compound 19] here?
Its chromatographic logP is 0.69.

Which chromatographic logP ([2]; table, read-out: logP (HCOOH)) does the source give for `Cc1nc(-c2cncc(F)c2)sc1C(=O)NS(C)(=O)=O` [Compound 20] here?
The chromatographic logP was 1.08.

For `CCS(=O)(=O)NC(=O)c1cnn(-c2cncc(F)c2)c1` [Compound 21], which chromatographic logP ([2]; table, read-out: logP (HCOOH)) is on record?
Its chromatographic logP is 1.24.

With `CCOC(=O)c1cnn(-c2cccnc2)c1` [Ethyl 1-(pyridin-3-yl)-1H-pyrazole-4-carboxylate] as the compound, how does the chromatographic logP ([2]; read-out: log P (HCOOH)) read?
The chromatographic logP was 1.55.
